From patent publication US11680047B2, “Enhanced erythropoiesis and iron metabolism” (FibroGen, Inc., priority 2003, dated 2023)

Legend:
[1] = test system: erythropoietin-resistant anemia; conditions: Salvarani et al. (1996); Goch et al. (1995); cited from earlier work
[2] = test system: VCAM-1; experiment: TNF-α induced VCAM-1 expression in HUVEC; type: cell-based, human; conditions: TNF-α 1 ng/ml, 1 day
Description: Endothelial cell adhesiveness for lymphocytes occurs, in part, by endothelial cell expression of vascular cell adhesion molecule (VCAM)-1. VCAM-1 expression in endothelial cells is induced by various inflammatory cytokines, such as TNF-α. To investigate the effect of HIF prolyl hydroxylase inhibition on TNF-α induced VCAM-1 expression, HUVEC (human umbilical vein endothelial cells) were stimulated with TNF-α in the absence or presence of various concentrations of compound B or compound C for 1 day. VCAM expression was then measured.
(§1) Endothelial E-selectin belongs to the selectin family of cellular adhesion molecules mediating the initial attachment of leukocytes to vascular endothelial cells in inflammatory events. IL-1β, TNF-α, and lipopolysaccharides each induce the expression of E-selectin. (See, e.g., Bevilacqua et al. (1987) Proc Natl Acad Sci USA 84:9238-9242 and Bevilacqua and van Furth (1993) J Leukoc Biol 54:363-378.) To investigate the effect of HIF prolyl hydroxylase inhibition on TNF-α induced E-selectin expression, HUVECs were stimulated with 1 ng/ml TNF-α in the absence or presence of various concentrations of compound B or compound C for 1 day. E-selectin and VCAM expression were then measured.

[3] = test system: VCAM-1; experiment: IL-1β induced VCAM-1 expression in HUVEC; type: cell-based, human; conditions: IL-1β 1 ng/ml, 1 day
Description: To investigate the effect of HIF prolyl hydroxylase inhibition on IL-1β induced VCAM-1 expression, HUVEC (human umbilical vein endothelial cells) were stimulated with IL-1β in the absence or presence of various concentrations of compound B or compound C for 1 day. VCAM expression was then measured.

[4] = test system: E-selectin; experiment: TNF-α induced E-selectin expression in HUVEC; type: cell-based, human; conditions: 1 ng/ml TNF-α, various concentrations, 1 day
Description: as §1

[5] = test system: E-selectin; experiment: IL-1β induced E-selectin expression in HUVEC; type: cell-based, human; conditions: 1 ng/ml IL-1β, 1 day
Description: To investigate the effect of HIF prolyl hydroxylase inhibition on IL-1β induced E-selectin expression, HUVECs were stimulated with 1 ng/ml IL-1β in the absence or presence of various concentrations of compound B or compound C for 1 day. E-selectin expression was then measured.

[6] = test system: E-selectin; experiment: Cell surface E-selectin (cell-based ELISA) in HUVEC pretreated with compound, then cytokines; design: species or system human; conditions: HUVEC pretreated 24 hours
Description: HUVEC were treated with vehicle control or various concentrations of compound B or compound C for 24 hours. Cells were washed and then stimulated with either 1 ng/ml TNF-α, 1 ng/ml IL-1β, or a combination of 1 ng/ml each of TNF-α, IL-1β, and IFN-γ for 4 hours. Cell surface expression of E-selectin was measured by cell-based ELISA.

[7] = test system: NRAMP2; experiment: NRAMP2 mRNA in small intestine of mice after IV administration (microarray); type: in vivo, mouse; conditions: 60 mg/kg IV, 4 hours
Description: In another experiment, mRNA was isolated from small intestine harvested 4 hours following IV administration of 60 mg/kg compound A, compound B, and compound C to mice. Probes were prepared from each of two animals from 5 treatment groups, and hybridized to Affymetrix mouse MOE430Aplus2 microarrays (one animal per array). Statistical comparisons of data obtained from arrays from treated versus non-treated animals was performed. […] Expression levels are shown as fold-induction over control, untreated animals for each expressed gene.

[8] = test system: Ceruloplasmin (CP); experiment: Microarray gene expression in Hep3B cells: ceruloplasmin; type: cell-based, human; conditions: 2 μM, 6 hr
Description: Hep3B cells (ATCC No. HB-8064) were grown in DMEM containing 8% fetal bovine serum. Hep3B cells were seeded into 6-well culture dishes at ˜500,000 cells per well. After 8 hours, the media was changed to DMEM containing 0.5% fetal bovine serum and the cells were incubated for an additional 16 hours. Compound B or compound D was added to the cells (2 μM final concentration) and the cells were incubated for various times. Control cells (no compound treatment, addition of DMSO alone) were harvested at 0, 6 and 48 hours. Harvested cells were assessed for cell viability (GUAVA), or added to RNA extraction buffer (RNeasy, Qiagen) and stored at −20° C. for subsequent RNA purification. Replicate microarrays were generated using RNA isolated from replicate experiments conducted on different days. Total RNA was isolated from cells using the RNeasy kit (Qiagen).
RNA was precipitated in 0.3 M sodium acetate (pH 5.2), 50 ng/ml glycogen, and 2.5 volumes of ethanol for one hour at −20° C. Samples were centrifuged and pellets were washed with cold 80% ethanol, dried, and resuspend in water. Double stranded cDNA was synthesized using a T7-(dT)24 first strand primer (Affymetrix, Inc., Santa Clara Calif.) and the SUPERSCRIPT CHOICE system (Invitrogen) according to the manufacturer's instructions. The final cDNA was extracted with an equal volume of 25:24:1 phenol:chloroform:isoamyl alcohol using a PHASE LOCK GEL insert (Brinkman, Inc., Westbury N.Y.). The aqueous phase was collected and cDNA was precipitated using 0.5 volumes of 7.5 M ammonium acetate and 2.5 volumes of ethanol. Alternatively, cDNA was purified using the GENECHIP sample cleanup module (Affymetrix) according to the manufacturer's instructions.
Biotin-labeled cRNA was synthesized from the cDNA in an in vitro […] (IVT) reaction using a BIOARRAY HighYield RNA transcript labeling kit (Enzo Diagnostics, Inc., Farmingdale N.Y.) according to the manufacturer's instructions. Final labeled product was purified and fragmented using the GENECHIP sample cleanup module (Affymetrix) according to the manufacturer's instructions.
Hybridization cocktail was prepared by bringing […] probe to […] in 1× hybridization buffer (100 mM MES, 1 M [Na^+], 20 mM EDTA, 0.01% Tween 20), 100 µg/ml herring sperm DNA, 500 µg/ml acetylated BSA, 0.03 nM contol oligo B2 (Affymetrix), and 1×GENECHIP eukaryotic hybridization control (Affymetrix). The cocktail was sequentially incubated at 99° C. for 5 minutes and 45° C. for 5 minutes, and then centrifuged for 5 minutes. The Human Genome U133A array (Affymetrix) was brought to room temperature and then prehybridized with 1× hybridization buffer at 45° C. for 10 minutes with rotation. The buffer was then replaced with […] hybridization cocktail and the array was hybridized for 16 hours at 45° C. at 60 rpm with counter balance. Following hybridization, arrays were washed once with 6×SSPE, 0.1% Tween 20, and then washed and stained using R-phycoerythrin-conjugated streptavidin (Molecular Probes, Eugene Oreg.), goat anti-streptavidin antibody (Vector Laboratories, Burlingame Calif.), and a GENECHIP Fluidics Station 400 instrument (Affymetrix) according to the manufacturer's micro_1v1 protocol (Affymetrix). Arrays were analyzed using a GENEARRAY scanner (Affymetrix) and Microarray Suite software (Affymetrix).
The Human Genome U133A array (Affymetrix) represents all sequences in the Human Unigene database build 133 (National Center for Biotechnology Information, Bethesda Md.), including approximately 14,500 well-characterized human genes.
RNA quality was monitored by capillary electrophoresis (Agilent Bioanalyzer). Hybridization cocktails were prepared as described (Affymetrix), and hybridized to Affymetrix human U133A arrays containing 22,283 probe sets. Array performance was analyzed with Affymetrix MicroArray Suite (MAS) software and individual probe sets were assigned “present”, “marginal, and “absent” calls according to software defaults. […]

[9] = test system: EPO production; experiment: Secreted EPO (ELISA) in Hep3B cells treated with IL-6; type: cell-based; conditions: 10 ng/ml IL-6, absence of compound
Description: Secreted EPO levels were determined using a commercially available ELISA kit (R&D Systems, catalog no. DEP00). […] As shown in FIGS. 27A and 27B, Hep3B cells treated with IL-6 increased EPO expression slightly above that in non-treated cells. Specifically, EPO levels in control cells was approximately 20 mIU/ml, while that in cells treated with 10 ng/ml IL-6 was approximately 50 mIU/ml.

CC(=O)N(O)CCCCCNC(=O)CCC(=O)N(O)CCCCCNC(=O)CCC(=O)N(O)CCCCCN [desferrioxamine]
efficacy in erythropoietin-resistant anemia, e.g., anemia of chronic disease [1]: some efficacy

O=C(O)CNC(=O)c1ncc2cc(Sc3ccccc3)ccc2c1O [C, [(4-Hydroxy-7-phenylsulfanyl-isoquinoline-3-carbonyl)-amino]-acetic acid]
inhibition of TNF-α induced VCAM-1 expression [2]: does-dependent inhibition of TNF-α induced VCAM-1 expression | inhibition of IL-1β induced VCAM-1 expression [3]: does-dependent inhibition of IL-1β induced VCAM-1 expression | inhibition of TNF-α induced E-selectin expression [4]: dose-dependent inhibition of TNF-α induced VCAM and E-selectin expression | inhibition of IL-1β induced E-selectin expression [5]: dose-dependent inhibition of IL-1β induced E-selectin expression | induction of cell surface E-selectin expression ([6]; then 1 ng/ml TNF-α or 1 ng/ml IL-1β for 4 hours): inhibited the induction of cell surface E-selectin expression | cell surface E-selectin expression ([6]; then TNF-α, IL-1β and IFN-γ, 1 ng/ml each, 4 hours): decreased E-selectin expression | NRAMP2 mRNA expression in small intestine [7]: increasing expression of NRAMP2 in intestine

COc1ccc(CCN(CCC(=O)NO)S(=O)(=O)c2ccc(NC(=O)N(Cc3ccccc3)Cc3ccccc3)cc2)cc1 [Compound D, 3-{[4-(3,3-Dibenzyl-ureido)-benzenesulfonyl]-[2-(4-methoxy-phenyl)-ethyl]-amino}-N-hydroxy-propionamide]
Ceruloplasmin (CP) fold-increase in mRNA levels above control, first data point [8]: 2.06 fold | Ceruloplasmin (CP) fold-increase in mRNA levels above control, second data point [8]: 2.387 fold

IL-6: cytokine added to Hep3B cells, alone or with compound A or compound B [reference compound]
EPO levels [9]: approximately 50 mIU/ml
